From US10757937B2, “Sulfonamides that activate ABA receptors” (The Regents of the University of California, priority 2014, dated 2020)
Where two headings read alike, the source gives them in different places.

How the values were obtained:
[1] = test system: Arabidopsis seed germination and hypocotyl growth; experiment: Arabidopsis seed germination and hypocotyl growth; format: in vivo; settings: − = none; for Hypocotyl Growth Inhibition / Germination Inhibition: Germination Inhibition II, tested at 10 and 50 uM; for Hypocotyl Growth Inhibition: lowest concentration that inhibited hypocotyl growth in wells where seeds germinated; for minimal effective concentration: Table VIII, tested at 10 or 50 μM, lowest inhibiting concentration; for Germination Inhibition: lowest of the two concentrations that inhibited
Description: We germinated seeds from wild type on ½× strength Murashige and Skoog salts growth medium containing either 10 or 50 μM for all 62 compounds as well as 1 μM (+)-ABA and mock controls. […] To investigate if the any of the compounds are sufficient to control vegetative ABA responses, we treated three week old Arabidopsis plants with aqueous solutions containing 0.02% Silwet and either 50 μM of selected N-acylsulfonamides, 50 μM ABA or 0.1% DMSO (the carrier solvent for the compounds tested). The leaf temperatures were subsequently examined using a thermal imaging camera 24 hours after treatment. It is well known that ABA-induced guard cell closure reduces transpiration, which leads to increases in leaf temperatures. It has been estimated that a 1° C. increase in leaf temperature correlates with a decrease in transpiration rates by approximately 50% (Sirault et al., 2009). Since guard cell aperture is the primary determinant of transpiration rates, thermal imaging is a useful way to indirectly infer relative transpiration rates and, indirectly, relative degrees of guard cell opening at the whole plant level.
(§1) Additional compounds were tested for biological activity following the procedures of Example 1 with minor modifications.
For the germination inhibition experiment, the compounds were tested at 10 and 50 uM. The amounts shown are the lowest of the two concentrations that either inhibited germination or hypocotyl growth in wells where seeds germinated.
For the germination test, the compounds were tested at 1, 5, 10, 25 and 50 uM. The amounts shown are the lowest of the concentrations that either inhibited germination or hypocotyl growth in the wells where seeds germinated.

PYL8 = target: T1, PYL8 (Arabidopsis thaliana, UniProt Q9FGM1); experiment: receptor-mediated PP2C (HAB1) inhibition in vitro assay; format: biochemical; settings: for PP2C Activity (25 μm) PYL8 / remaining activity at 25 µM: compound at 25 μM, control without agonist = 100%
T1 construct: 6X-His; made in house; host or cells: E. coli BL21[DE3]pLysS
T1 sequence (Q9FGM1 1-188): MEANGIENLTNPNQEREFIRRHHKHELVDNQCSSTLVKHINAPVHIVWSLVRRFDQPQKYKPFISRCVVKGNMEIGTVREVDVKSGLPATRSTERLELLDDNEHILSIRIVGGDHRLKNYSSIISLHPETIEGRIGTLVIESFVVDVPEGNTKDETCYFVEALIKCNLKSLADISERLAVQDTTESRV
T1 sequence (Q9CAJ0 23-511 partner): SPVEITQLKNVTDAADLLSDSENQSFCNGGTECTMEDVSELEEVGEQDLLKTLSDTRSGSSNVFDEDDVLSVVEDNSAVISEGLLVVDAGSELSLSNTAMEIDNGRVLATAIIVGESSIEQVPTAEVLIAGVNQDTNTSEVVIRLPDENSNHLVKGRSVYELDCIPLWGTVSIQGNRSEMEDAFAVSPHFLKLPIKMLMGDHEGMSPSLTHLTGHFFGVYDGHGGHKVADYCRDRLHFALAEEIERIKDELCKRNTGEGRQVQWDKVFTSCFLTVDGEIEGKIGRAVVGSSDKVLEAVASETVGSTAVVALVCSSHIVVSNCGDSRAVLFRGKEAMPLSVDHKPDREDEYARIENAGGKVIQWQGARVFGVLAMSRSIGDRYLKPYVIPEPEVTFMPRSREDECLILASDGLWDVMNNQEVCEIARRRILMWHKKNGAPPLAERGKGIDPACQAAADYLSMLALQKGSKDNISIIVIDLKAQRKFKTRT
Description: (§2) A family of 62 structurally related N-acyl sulfonamides (Tables I-V) were tested for ABA agonist activity using multiple receptor-mediated PP2C inhibition in vitro assays (Park et al., 2009). […] The constructs utilized for protein expression have been previously described (Okamoto et al. 2013). For constructs encoding 6X-His-fusion proteins (all receptors except PYL11), the coding sequences were of the receptors were cloned in the vector pET28, expressed in BL21[DE3]pLysS E. coli host cells at 18° C. overnight, and subsequently purified from sonicated lysates using Ni-NTA agarose (Qiagen, USA), according to the manufacturer's instructions. PYL11 was constructed as a maltose binding protein fusion in the vector pMAL-c, expressed in BL21┌DE3┐pLysS host cells and purified using amylose resin (New England Biolabs) as described by the manufacturer. Recombinant GST-HAB1 was expressed and purified as described previously (Park et al., 2009). PP2C activity assays were conducted using the fluorogenic phosphatase substrate 4-methylumbelliferyl-phosphate. Recombinant receptors and HAB1 were used to examine ligand-induced PP2C inactivation in response to multiple test compounds. Enzyme inhibition assays were conducted using the following assay conditions: 50 nM GST-PP2C, 100 mM Tris-OAc (pH 7.9), 100 mM NaCl, 1 mM MnCl2, 1% β-mercaptoethanol. […] Because of this, the ratio of each receptor used in the PP2C-inhibitions assays was established empirically as the minimum fold-excess of receptor required to elicit maximal PP2C inhibition at a saturating ABA concentration (10 μM).
(§3) Based on this criterion, we used a ratio of 2:1 receptor in the assays described herein.
(§4) Using the above assay conditions, compounds were tested at 25 μM for agonist activity on PYL4, PYL5, PYL8 and PYL9. […] Consequently, a subset of the compounds was tested at multiple concentrations against 11 receptors so that IC50 values and receptor selectivity profiles could be examined. […] Thus, the N-acylsulfonamide agonists disclosed are selective for monomeric receptors.
as §1
(§5) For these in vitro receptor assays, the compounds listed were tested in in vitro PP2C inhibition assays with 50 uM of the test compound except for ABA (10 uM). IC50s were calculated from dose curves, but only for selected compounds.

PYL9 = target: T2, PYL9 (Arabidopsis thaliana, UniProt Q84MC7); experiment: as above; format: biochemical; settings: for PP2C Activity (25 μm) PYL9 / remaining activity at 25 µM: compound at 25 μM, control without agonist = 100%
T2 construct: 6X-His; made in house; host or cells: E. coli BL21[DE3]pLysS
T2 sequence (Q84MC7 1-187): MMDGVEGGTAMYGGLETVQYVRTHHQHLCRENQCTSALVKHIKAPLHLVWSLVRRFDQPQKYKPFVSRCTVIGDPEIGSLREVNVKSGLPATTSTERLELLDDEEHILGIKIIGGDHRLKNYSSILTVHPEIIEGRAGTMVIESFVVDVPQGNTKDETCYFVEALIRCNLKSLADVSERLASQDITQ
T2 sequence (Q9CAJ0 23-511 partner): T1 sequence (Q9CAJ0 23-511 partner)
Description: as §2, §3, §4, §1, §5

PYL4 = target: T3, PYL4 (Arabidopsis thaliana, UniProt O80920); experiment: as above; format: biochemical; settings: compound at 25 μM; control without agonist = 100%
T3 construct: 6X-His; made in house; host or cells: E. coli BL21[DE3]pLysS
T3 sequence (O80920 1-207): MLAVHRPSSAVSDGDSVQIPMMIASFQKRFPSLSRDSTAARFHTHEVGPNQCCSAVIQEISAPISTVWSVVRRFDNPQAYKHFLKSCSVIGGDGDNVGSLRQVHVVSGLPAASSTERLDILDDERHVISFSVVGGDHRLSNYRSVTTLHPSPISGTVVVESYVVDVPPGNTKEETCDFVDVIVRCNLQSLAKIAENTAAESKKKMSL
T3 sequence (Q9CAJ0 23-511 partner): T1 sequence (Q9CAJ0 23-511 partner)
Description: as §2, §3, §4, §1, §5

PYL5 = target: T4, PYL5 (Arabidopsis thaliana, UniProt Q9FLB1); experiment: as above; format: biochemical; settings: for PP2C Activity (25 μm) PYL5 / remaining activity at 25 µM: compound at 25 μM, control without agonist = 100%
T4 construct: 6X-His; made in house; host or cells: E. coli BL21[DE3]pLysS
T4 sequence (Q9FLB1 1-203): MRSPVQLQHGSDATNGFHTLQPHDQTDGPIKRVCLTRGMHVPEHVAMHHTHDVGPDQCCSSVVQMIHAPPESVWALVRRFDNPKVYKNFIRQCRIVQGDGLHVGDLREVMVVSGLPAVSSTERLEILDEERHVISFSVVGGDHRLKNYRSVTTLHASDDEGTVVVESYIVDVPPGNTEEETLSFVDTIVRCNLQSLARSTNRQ
T4 sequence (Q9CAJ0 23-511 partner): T1 sequence (Q9CAJ0 23-511 partner)
Description: as §2, §3, §4, §1, §5

PYL6 = target: T5, PYL6 (Arabidopsis thaliana, UniProt Q8S8E3); experiment: as above; format: biochemical; settings: Table VII; read-out: PP2C Dose Curves PYL6 (IC50)
T5 construct: 6X-His; made in house; host or cells: E. coli BL21[DE3]pLysS
T5 sequence (Q8S8E3 1-215): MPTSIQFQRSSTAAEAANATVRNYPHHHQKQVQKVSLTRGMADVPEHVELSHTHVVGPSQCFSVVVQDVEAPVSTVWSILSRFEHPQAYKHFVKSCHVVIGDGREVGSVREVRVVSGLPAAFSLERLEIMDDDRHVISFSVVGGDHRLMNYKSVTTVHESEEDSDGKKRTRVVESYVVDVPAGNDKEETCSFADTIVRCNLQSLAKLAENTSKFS
T5 sequence (Q9CAJ0 23-511 partner): T1 sequence (Q9CAJ0 23-511 partner)
Description: as §2, §3, §4, §1, §5

PYL11 = target: T6, PYL11 (Arabidopsis thaliana, UniProt Q9FJ50); experiment: as above; format: biochemical; settings: Table VII; read-out: PP2C Dose Curves PYL11 (IC50)
T6 construct: made in house; host or cells: E. coli BL21[DE3]pLysS
T6 sequence (Q9FJ50 1-161): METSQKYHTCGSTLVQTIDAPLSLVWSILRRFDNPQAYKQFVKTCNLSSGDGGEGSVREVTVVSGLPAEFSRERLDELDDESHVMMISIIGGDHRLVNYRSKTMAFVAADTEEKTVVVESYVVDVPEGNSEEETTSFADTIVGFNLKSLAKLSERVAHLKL
T6 sequence (Q9CAJ0 23-511 partner): T1 sequence (Q9CAJ0 23-511 partner)
Description: as §2, §3, §4, §1, §5

[2] = read-out: Hypocotyl Growth Inhibition
[3] = ABA at 1 μM, read-out: Germination Inhibition

Compound	Hypocotyl Growth Inhibition [1] [µM]	minimal effective concentration [1, 2] [µM]	PP2C Activity (25 μm) PYL8 (PYL8) [%]	PP2C Activity (25 μm) PYL9 (PYL9) [%]	PP2C Activity (25 μm) PYL4 (PYL4) [%]	PP2C Activity (25 μm) PYL5 (PYL5) [%]	Germination Inhibition [1] [µM]	minimal effective concentration [1, 3] [µM]	IC50 (PYL8; Table VII, read-out: PP2C Dose Curves PYL8 (IC50)) [µM]	remaining activity at 25 µM (PYL8) [%]	IC50 (PYL6) [µM]	IC50 (PYL9; Table VII, read-out: PP2C Dose Curves PYL9 (IC50)) [µM]	remaining activity at 25 µM (PYL9) [%]	IC50 (PYL11) [µM]	remaining activity at 25 µM (PYL4) [%]	IC50 (PYL5; Table VII, read-out: PP2C Dose Curves PYL5 (IC50)) [µM]	remaining activity at 25 µM (PYL5) [%]	minimal effective concentration ([1]; Arabidopsis thaliana, read-out: Hypocotyl Growth Inhibition) [µM]
N#Cc1ccc(CS(=O)(=O)NC(=O)C2(c3ccc(Cl)cc3)CCC2)cc1 [Compound 28]	10	10	55	37	96	65	–	–	–	–	–	–	–	–	–	–	–	–
N#Cc1ccc(CS(=O)(=O)NC(=O)C2(c3cccc(F)c3)CCC2)cc1 [Compound 33]	10	10	39	24	98	81	–	–	–	–	–	–	–	–	–	–	–	–
CC(C)(C)c1ccc(C2(C(=O)NS(=O)(=O)Cc3ccc(C#N)cc3)CC2)cc1 [Compound 34]	–	–	103	107	95	99	50	50	–	–	–	–	–	–	–	–	–	–
Cc1cccc(C2(C(=O)NS(=O)(=O)Cc3ccc(C#N)cc3)CC2)c1 [Compound 38]	50	50	77	66	92	41	–	–	–	–	–	–	–	–	–	–	–	–
COc1ccc(C2(C(=O)NS(=O)(=O)Cc3ccc(C#N)cc3)CCCC2)cc1 [Compound 39]	10	10	71	66	98	110	50	50	–	–	–	–	–	–	–	–	–	–
COc1ccccc1C1(C(=O)NS(=O)(=O)Cc2ccc(C#N)cc2)CC1 [Compound 41]	10	10	89	81	93	27	–	–	–	–	–	–	–	–	–	–	–	–
N#Cc1ccc(CS(=O)(=O)NC(=O)C2(c3cccc(F)c3)CC2)cc1 [Compound 46]	–	–	–	–	–	–	–	–	111	73	15.3	39.6	55	18.5	95	7.06	24	–
CC(C)(C(=O)NS(=O)(=O)Cc1ccc(C#N)cc1)c1ccc2c(c1)OCCO2 [Compound 53]	50	50	99	98	89	95	–	–	–	–	–	–	–	–	–	–	–	–
CC(C)(C(=O)NS(=O)(=O)Cc1ccc(C#N)cc1)c1ccc2ccccc2c1 [Compound 54]	50	50	106	109	97	68	–	–	–	–	–	–	–	–	–	–	–	–
CC1(C(=O)NS(=O)(=O)Cc2ccc(C#N)cc2)CCCc2ccccc21 (centres unmarked) [Compound 61]	50	–	–	–	–	–	–	–	–	75	–	–	68	–	91	–	16	50
